How the values were obtained:
[1] = Headspace concentration of fragrance ingredients over blotter (thermal desorption GC-MS); format: physicochemical; details: fragrance TAK
Method: The headspace concentration of individual ingredients of fragrance TAK, as formulated in either a conventional EdT (EdT1) or a fragrance composition of the invention (C1), was assessed by the method described below.
A 10 cm length was cut from a standard perfumers' blotter. A sample of 100µL volume was applied to the upper surface of the blotter with a syringe. The blotter was placed on a hot plate thermostatted at 32°C and left to equilibrate for 5 minutes. Two desorption tubes (6cm length 4mm internal diameter) each containing 2 cm length of Tenax TA adsorbent were fitted to the glass part of a headspace apparatus shown in figure 9. The glass part was fitted over the blotter, a metering pump was connected to one of the desorption tubes and air was drawn through the apparatus flushing the headspace over the blotter at a rate of 17mL/min. Sampling continued for about 16.5 minutes until 280mL of air had been extracted. Then the outlet desorption tube was analysed by gas chromatography as described below. The glass part was removed from the blotter which was left on the hotplate until the next sampling time when two fresh desorption tubes were fitted and the extraction procedure repeated for a further 280mL of extracted headspace.
• Initial Temp: 50°C • Initial Time: 5 min • Rate: 3°C /min • Final Temp: 250°C • Final Time: 20 min • Run Time: 91.67 min
• Column: HP-5MS 30m * 0.25mm * 0.25µm • Gas: Helium • Constant pressure 12.675 psi
• Initial Temp: -30°C • Equilibration Time: 0.05 min • Initial Time: 0.00 min • Rate 12°C / min • End Temp: 260°C • Hold Time: 10 min
Temperature program • Initial Temp: 35°C • Delay Time: 0.30 min • Initial Time: 0.00 min • Rate: 30°C / min • End Temp: 250°C • Hold Time: 5.00 min
TDU Settings • Transfer Temp: 250°C • Transfer Temp Mode: Fixed • Desorption Mode: splitless • Sample mode: Retain tube - standby cooling • Standby Temp: 50°C
Detector MS • MS 5973 • Mass range: 35 to 350 • Threshold: 150 • Mass Quad: 150°C • Mass Source: 230°C
Following the procedure of example 2, the headspace concentration of representative ingredients of fragrance COM1 was determined. COM1 was dosed at 5 and 20 % either in control EdT3 and EdT4 or in compositions of the invention C7 and C8, as shown in table 10.
The headspace concentration of individual ingredients of fragrance TAK (see Table 1), as formulated in either a conventional EdT (EdT1) or fragrance compositions of the invention (C14, C15), was assessed by the method described in example 2.

[2] = Amount of fragrance ingredients retained on paper blotter after evaporation (ethanol extraction, GC-MS); format: physicochemical
Outline: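 100 µL of fragrance formulation applied to paper blotters kept at 32°C open to air; at each time three blotters extracted 1 h in ethanol with methyl decanoate internal standard and analysed by GC-MS (HP-5MS, 50–280°C). Amounts averaged over triplicates and expressed as percent of time-zero level.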

[3] = Table 3, fragrance TAK in C1, 15 min, 32°C
[4] = Table 3, fragrance TAK in C1, 60 min, 32°C
[5] = Table 3, fragrance TAK in C1, 120 min, 32°C
[6] = Table 3, fragrance TAK in C1, 240 min, 32°C
[7] = Table 3, fragrance TAK in C1, 480 min, 32°C
[8] = Table 3, fragrance TAK in EdT1, 15 min, 32°C
[9] = Table 3, fragrance TAK in EdT1, 60 min, 32°C
[10] = Table 3, fragrance TAK in EdT1, 120 min, 32°C
[11] = Table 3, fragrance TAK in EdT1, 240 min, 32°C
[12] = Table 3, fragrance TAK in EdT1, 480 min, 32°C
[13] = Table 3, fragrance TAK in EdT1 or C1, T0, set at 100% (normalisation)
[14] = Table 4, fragrance TAK in C2, 15 min, 32°C
[15] = Table 4, fragrance TAK in C2, 480 min, 32°C
[16] = Table 4, fragrance TAK in EdT1, 15 min, 32°C
[17] = Table 4, fragrance TAK in EdT1, 480 min, 32°C
[18] = Table 4, fragrance TAK in EdT1 or C2, T0, set at 100% (normalisation)
[19] = Table 5, fragrance TAK in C3, 15 min, 32°C
[20] = Table 5, fragrance TAK in C3, 60 min, 32°C
[21] = Table 5, fragrance TAK in C3, 120 min, 32°C
[22] = Table 5, fragrance TAK in C3, 240 min, 32°C
[23] = Table 5, fragrance TAK in C3, 480 min, 32°C
[24] = Table 5, fragrance TAK in C3, 1440 min, 32°C
[25] = Table 5, fragrance TAK in EdT1, 15 min, 32°C
[26] = Table 5, fragrance TAK in EdT1, 60 min, 32°C
[27] = Table 5, fragrance TAK in EdT1, 120 min, 32°C
[28] = Table 5, fragrance TAK in EdT1, 240 min, 32°C
[29] = Table 5, fragrance TAK in EdT1, 480 min, 32°C
[30] = Table 5, fragrance TAK in EdT1, 1440 min, 32°C
[31] = Table 5, fragrance TAK in EdT1 or C3, T0, set at 100% (normalisation)
[32] = Table 6, fragrance TAK in C4, 15 min, 32°C
[33] = Table 6, fragrance TAK in C4, 60 min, 32°C
[34] = Table 6, fragrance TAK in C4, 120 min, 32°C
[35] = Table 6, fragrance TAK in C4, 240 min, 32°C
[36] = Table 6, fragrance TAK in C4, 480 min, 32°C
[37] = Table 6, fragrance TAK in EdT1, 15 min, 32°C
[38] = Table 6, fragrance TAK in EdT1, 60 min, 32°C
[39] = Table 6, fragrance TAK in EdT1, 120 min, 32°C
[40] = Table 6, fragrance TAK in EdT1, 240 min, 32°C
[41] = Table 6, fragrance TAK in EdT1, 480 min, 32°C
[42] = Table 6, fragrance TAK in EdT1 or C4, T0, set at 100% (normalisation)

SMILES: CC(C=O)Cc1ccc(C(C)(C)C)cc1 (stereo not shown) [Lilial™, 3-(4-tert-Butylphenyl)-2-methylpropanal]
- headspace concentration in composition C1 compared to control EdT1 ([1]; T0 + 8h, Figure 4): significantly greater
- amount of fragrance ingredient retained on blotter (percentage of the initial amount) [2, 3]: 78%
- amount of fragrance ingredient retained on blotter (percentage of the initial amount) [2, 4]: 79%
- amount of fragrance ingredient retained on blotter (percentage of the initial amount) [2, 5]: 75%
- amount of fragrance ingredient retained on blotter (percentage of the initial amount) [2, 6]: 72%
- amount of fragrance ingredient retained on blotter (percentage of the initial amount) [2, 7]: 51%
- amount of fragrance ingredient retained on blotter (percentage of the initial amount) [2, 8]: 91%
- amount of fragrance ingredient retained on blotter (percentage of the initial amount) [2, 9]: 84%
- amount of fragrance ingredient retained on blotter (percentage of the initial amount) [2, 10]: 75%
- amount of fragrance ingredient retained on blotter (percentage of the initial amount) [2, 11]: 65%
- amount of fragrance ingredient retained on blotter (percentage of the initial amount) [2, 12]: 23%
- amount of fragrance ingredient retained on blotter (percentage of the initial amount) [2, 13]: 100%
- amount of fragrance ingredient retained on blotter (percentage of the initial amount) [2, 14]: 98%
- amount of fragrance ingredient retained on blotter (percentage of the initial amount) [2, 15]: 49%
- amount of fragrance ingredient retained on blotter (percentage of the initial amount) [2, 16]: 87%
- amount of fragrance ingredient retained on blotter (percentage of the initial amount) [2, 17]: 18%
- amount of fragrance ingredient retained on blotter (percentage of the initial amount) [2, 18]: 100%
- amount of fragrance ingredient retained on blotter (percentage of the initial amount) [2, 19]: 88%
- amount of fragrance ingredient retained on blotter (percentage of the initial amount) [2, 20]: 92%
- amount of fragrance ingredient retained on blotter (percentage of the initial amount) [2, 21]: 90%
- amount of fragrance ingredient retained on blotter (percentage of the initial amount) [2, 22]: 87%
- amount of fragrance ingredient retained on blotter (percentage of the initial amount) [2, 23]: 60%
- amount of fragrance ingredient retained on blotter (percentage of the initial amount) [2, 24]: 45%
- amount of fragrance ingredient retained on blotter (percentage of the initial amount) [2, 25]: 91%
- amount of fragrance ingredient retained on blotter (percentage of the initial amount) [2, 26]: 84%
- amount of fragrance ingredient retained on blotter (percentage of the initial amount) [2, 27]: 75%
- amount of fragrance ingredient retained on blotter (percentage of the initial amount) [2, 28]: 65%
- amount of fragrance ingredient retained on blotter (percentage of the initial amount) [2, 29]: 23%
- amount of fragrance ingredient retained on blotter (percentage of the initial amount) [2, 30]: 6%
- amount of fragrance ingredient retained on blotter (percentage of the initial amount) [2, 31]: 100%
- amount of fragrance ingredient retained on blotter (percentage of the initial amount) [2, 32]: 99%
- amount of fragrance ingredient retained on blotter (percentage of the initial amount) [2, 33]: 92%
- amount of fragrance ingredient retained on blotter (percentage of the initial amount) [2, 34]: 88%
- amount of fragrance ingredient retained on blotter (percentage of the initial amount) [2, 35]: 87%
- amount of fragrance ingredient retained on blotter (percentage of the initial amount) [2, 36]: 52%
- amount of fragrance ingredient retained on blotter (percentage of the initial amount) [2, 37]: 91%
- amount of fragrance ingredient retained on blotter (percentage of the initial amount) [2, 38]: 84%
- amount of fragrance ingredient retained on blotter (percentage of the initial amount) [2, 39]: 75%
- amount of fragrance ingredient retained on blotter (percentage of the initial amount) [2, 40]: 65%
- amount of fragrance ingredient retained on blotter (percentage of the initial amount) [2, 41]: 23%
- amount of fragrance ingredient retained on blotter (percentage of the initial amount) [2, 42]: 100%

SMILES: CCCCCCOC(C)=O [Hexyl acetate, Hexyl Acetate]
- headspace presence of ingredient ([1]; after 1 hour, both control EdT1 and composition C1, Figure 2): lost
- amount of fragrance ingredient retained on blotter (percentage of the initial amount) [2, 3]: 41%
- amount of fragrance ingredient retained on blotter (percentage of the initial amount) [2, 4]: 5%
- amount of fragrance ingredient retained on blotter (percentage of the initial amount) [2, 5]: 2%
- amount of fragrance ingredient retained on blotter (percentage of the initial amount) [2, 6]: 2%
- amount of fragrance ingredient retained on blotter (percentage of the initial amount) [2, 7]: 2%
- amount of fragrance ingredient retained on blotter (percentage of the initial amount) [2, 8]: 13%
- amount of fragrance ingredient retained on blotter (percentage of the initial amount) [2, 9]: 2%
- amount of fragrance ingredient retained on blotter (percentage of the initial amount) [2, 10]: 2%
- amount of fragrance ingredient retained on blotter (percentage of the initial amount) [2, 11]: 1%
- amount of fragrance ingredient retained on blotter (percentage of the initial amount) [2, 12]: <1%
- amount of fragrance ingredient retained on blotter (percentage of the initial amount) [2, 13]: 100%
- amount of fragrance ingredient retained on blotter (percentage of the initial amount) [2, 14]: 54%
- amount of fragrance ingredient retained on blotter (percentage of the initial amount) [2, 15]: <1%
- amount of fragrance ingredient retained on blotter (percentage of the initial amount) [2, 16]: 15%
- amount of fragrance ingredient retained on blotter (percentage of the initial amount) [2, 17]: 6%
- amount of fragrance ingredient retained on blotter (percentage of the initial amount) [2, 18]: 100%
- amount of fragrance ingredient retained on blotter (percentage of the initial amount) [2, 19]: 43%
- amount of fragrance ingredient retained on blotter (percentage of the initial amount) [2, 20]: 5%
- amount of fragrance ingredient retained on blotter (percentage of the initial amount) [2, 21]: 2%
- amount of fragrance ingredient retained on blotter (percentage of the initial amount) [2, 22]: 2%
- amount of fragrance ingredient retained on blotter (percentage of the initial amount) [2, 23]: 2%
- amount of fragrance ingredient retained on blotter (percentage of the initial amount) [2, 24]: 2%
- amount of fragrance ingredient retained on blotter (percentage of the initial amount) [2, 25]: 13%
- amount of fragrance ingredient retained on blotter (percentage of the initial amount) [2, 26]: 2%
- amount of fragrance ingredient retained on blotter (percentage of the initial amount) [2, 27]: 2%
- amount of fragrance ingredient retained on blotter (percentage of the initial amount) [2, 28]: 1%
- amount of fragrance ingredient retained on blotter (percentage of the initial amount) [2, 29]: <1%
- amount of fragrance ingredient retained on blotter (percentage of the initial amount) [2, 30]: <1%
- amount of fragrance ingredient retained on blotter (percentage of the initial amount) [2, 31]: 100%
- amount of fragrance ingredient retained on blotter (percentage of the initial amount) [2, 32]: 41%
- amount of fragrance ingredient retained on blotter (percentage of the initial amount) [2, 33]: 5%
- amount of fragrance ingredient retained on blotter (percentage of the initial amount) [2, 34]: 5%
- amount of fragrance ingredient retained on blotter (percentage of the initial amount) [2, 35]: 4%
- amount of fragrance ingredient retained on blotter (percentage of the initial amount) [2, 36]: 3%
- amount of fragrance ingredient retained on blotter (percentage of the initial amount) [2, 37]: 13%
- amount of fragrance ingredient retained on blotter (percentage of the initial amount) [2, 38]: 2%
- amount of fragrance ingredient retained on blotter (percentage of the initial amount) [2, 39]: 2%
- amount of fragrance ingredient retained on blotter (percentage of the initial amount) [2, 40]: 1%
- amount of fragrance ingredient retained on blotter (percentage of the initial amount) [2, 41]: <1%
- amount of fragrance ingredient retained on blotter (percentage of the initial amount) [2, 42]: 100%

— EP3375430A1, “FRAGRANCE COMPOSITIONS” (Takasago International Corporation, priority 2017, dated 2018)
